# According to patent US20190151304A1, “METHODS AND PHARMACEUTICAL COMPOSITIONS FOR THE TREATMENT OF AUTOIMMUNE INFLAMMATORY” (INSERM (INSTITUT NATIONAL DE LA SANTÉ ET DE LA RECHERCJAE …, priority 2016, published 2019):
# What was measured:
# DSS-induced colitis mice = DSS-induced colitis mice model (Disease Activity Index, colon length); format: in vivo, Balb/c mice; details: 5% DSS in drinking water; 20 μg daily ip, one week
# From the text: FIG. 2: OXA ameliorates the DAI (weight and colitis score) of DSS-induced colitis mice. Mice were orally treated with 5% DSS for 7 days in the presence or in the absence of daily intraperitoneal injection of OxA (0.22 μmoles/kg). Left, determination of gain or loss of weight in the absence of DSS treatment (Control,▴), in the presence of DSS treatment (DSS,▪) and in the presence of DSS associated to OxA treatment (DSS+OxA,●). Right, evaluation of Disease Activity Index (DAI) scored by measuring weight, length of colon, diarrhea and blood presence in the stool in DSS untreated control mice (Control,A), in DSS treated mice (DSS,▪) and in DSS treated mice associated to OxA treatment (DSS+OxA,●).
# FIG. 14: Effect of daily ip inoculation of OxA, Suvorexant and Almorexant on the length of colon from DSS—(dextran sulfate sodium) treated mice mimicking the acute ulcerative colitis disease. A. Mice were treated with 5% (w/v) DSS in drinking water and daily injected with 20 μg of OxA (OXA IP), 20 μg of Suvorexant (Suvo) or 20 μg of Almorexant (Almo). Control (wt) or treated DSS mice (DSS) were daily injected with 100 μl PBS. After one week of treatment, mice were sacrificed and the length of colon which represented a good marker of inflammation state, was measured. […] B. quantification of colon length from 5 different DSS-treated mice injected with OxA (DSS+OXA IP), Almorexant (DSS+Almo), Suvorexant (DSS+Suvo) or not injected (WT and DSS). NS, no significant; *, p<0.05; ** p<0.001
# Based on these observations, we have investigated the effect of Orexin A (OxA) on acute inflammation in mice treated with Dextran Sulfate Sodium (DSS). OxA was preferentially chosen in these experiments since the presence of two disulphide bridges confers it more stability. DSS induces acute colitis characterized by weight loss, bloody diarrhea, intestinal ulcerations and infiltrations with granulocytes.
# DSS-induced colitis mice models: Balb/c mice were orally treated by 5% (w/v) of Dextran Sulfate Sodium (DSS) for 7 days. Orexin treatment was carried out in DSS treated mice by daily intraperitoneal injection of OxA (0.22 μmoles/kg) for 7 days. Weight and colitis symptoms (diarrhea, blood in the stool . . . ) for each mouse was daily measured. After 7 days of treatment, animals were sacrificed and colons were resected to further analyses (size, histological aspect, cytokine assays).
# The inventors have thus investigated the effect of daily intraperitoneal inoculation of OxA, Suvorexant and Almorexant in the experimental context of EXAMPLE 1 (colitis). In particular they investigated the effects of the drugs on the length of colon from DSS-(dextran sulfate sodium) treated mice mimicking the acute ulcerative colitis disease. […]
# OX1R = molecular target: T1, OX1R (Homo sapiens, UniProt O43613, A280G); test: Ca2+ mobilization assay in HEK-OX1R cells (FluoForte); format: cell-based; details: pre-incubation 1 μM for 1 h, then 1 μM OxA
# T1 construct: HEK cells expressing recombinant native OX1R (HEK-OX1R); expressed in transfected cells; host or cells: HEK cells (HEK-OX1R)
# T1 sequence (O43613 1-425 A280G): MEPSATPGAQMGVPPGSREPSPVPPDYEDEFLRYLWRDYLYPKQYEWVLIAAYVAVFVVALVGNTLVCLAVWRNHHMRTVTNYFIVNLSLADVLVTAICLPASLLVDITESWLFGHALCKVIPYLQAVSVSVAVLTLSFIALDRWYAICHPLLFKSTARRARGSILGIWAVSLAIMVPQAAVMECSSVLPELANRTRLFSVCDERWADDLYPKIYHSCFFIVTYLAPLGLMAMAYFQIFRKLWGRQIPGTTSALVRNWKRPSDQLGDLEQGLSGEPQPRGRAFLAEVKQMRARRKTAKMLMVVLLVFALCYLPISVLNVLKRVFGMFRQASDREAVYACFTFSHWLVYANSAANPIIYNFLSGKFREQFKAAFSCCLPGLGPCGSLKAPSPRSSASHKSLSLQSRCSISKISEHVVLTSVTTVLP
# [1] = test system: colon adenocarcinoma HT-29 cells; test: Apoptosis assay (annexin V-PE binding, Guava nexin kit) in HT-29 cells; format: cell-based; details: 48 h; orexin-A 1 μM, SB408124 various concentrations
# Method: FIG. 13: Effect of orexin-A and SB408124 antagonist on apoptosis in OX1R expressing colon adenocarcinoma cells, HT-29. HT-29 cells were challenged with 1 μM orexin-A or various concentration of SB408124 for 48 h. Apoptosis was measured by determination of annexin V-PE binding, and results are expressed as the percentage of apoptotic cells. Results are means±SE of three experiments. ***P<0.001.
# (§1) Cells growth determination and apoptosis assay: HEK-OX1R cells or colon adenocarcinoma HT-29 cells were seeded, grown and maintained at 37° C. in a humidified 5% CO2/air incubator. After 24 hr culture, cells were treated with or without Orexin-A peptide or SB408124 antagonist, previously dissolved in DMSO, to be tested at the concentration indicated in the figure legends. After 48 hr of treatment, adherent cells were harvested by Trip1E (Life Technologies, Saint Aubin, France) and manually counted. Apoptosis was determined using the Guava PCA system and the Guava nexin kit.
# [2] = test system: colon adenocarcinoma HT-29 cells; test: Cells growth determination, HT-29 cells; format: cell-based; details: 48 hr; OxA 0.1 μM, SB408124 increasing concentrations
# Method: (§2) FIG. 12: Determination of the inhibition of cellular growth of HEK-OX1R cells and colon adenocarcinoma cells (HT-29) induced by 0.1 μM of OxA or various concentrations of SB408124 antagonist. HEK-OX1R cells (black column) and HT-29 cells (white column) were incubated with 0.1 μM of OxA and indicated increasing concentration of SB408124, and cells were counted after 48 hr incubation. Results are expressed as the percentage of total viable cells.
# as §1
# HEK-OX1R cells = test: Cells growth determination, HEK-OX1R cells; format: cell-based; details: 48 hr; OxA 0.1 μM, SB408124 increasing concentrations
# Method: as §2, §1
Compound,Protection from DSS induced acute ulcerative colitis (length of colon) (DSS-induced colitis mice),Effect on OxA-induced Ca2+ mobilization in HEK-OX1R cells (OX1R),Apoptosis in HT-29 cells [1],Inhibition of cellular growth of HT-29 cells [2],Inhibition of cellular growth of HEK-OX1R cells (HEK-OX1R cells)
CNC(=O)[C@@H](c1ccccc1)N1CCc2cc(OC)c(OC)cc2[C@@H]1CCc1ccc(C(F)(F)F)cc1 [Almorexant],protect mice from DSS induced acute ulcerative colitis disease,–,–,–,–
Cc1ccc(-n2nccn2)c(C(=O)N2CCN(c3nc4cc(Cl)ccc4o3)CC[C@H]2C)c1 [Suvorexant],protect mice from DSS induced acute ulcerative colitis disease,–,–,–,–
Cc1cc(NC(=O)Nc2ccc(N(C)C)cc2)c2cc(F)cc(F)c2n1 [SB408124],–,totally abolished,able to induce in a dose-dependent manner cell apoptosis,strong inhibition in a dose-dependent manner,strong inhibition in a dose-dependent manner
